The record followed here is patent US10010624B2, “Pyrrolobenzodiazepine-antibody conjugates” (MEDIMMUNE LIMITED, priority 2013, dated 2018).

This test deals with K562 human chronic myeloid leukaemia cells. Kind of test: K562 assay (MTT cytotoxicity of released compounds). The class given is cell-based. Conditions: drug incubation 1 hour or 96 hours (not specified which), MTT readout, dose reducing optical density to 50% of control. As to the method: K562 human chronic myeloid leukaemia cells were maintained in RPM1 1640 medium supplemented with 10% fetal calf serum and 2 mM glutamine at 37° C. in a humidified atmosphere containing 5% CO2 and were incubated with a specified dose of drug for 1 hour or 96 hours at 37° C. in the dark. The incubation was terminated by centrifugation (5 min, 300 g) and the cells were washed once with drug-free medium. Following the appropriate drug treatment, the cells were transferred to 96-well microtiter plates (10^4 cells per well, 8 wells per sample). Plates were then kept in the dark at 37° C. in a humidified atmosphere containing 5% CO2. The assay is based on the ability of viable cells to reduce a yellow soluble tetrazolium salt, 3-(4,5-dimethylthiazol-2-yl)-2,5-diphenyl-2H-tetrazolium bromide (MTT, Aldrich-Sigma), to an insoluble purple formazan precipitate. Following incubation of the plates for 4 days (to allow control cells to increase in number by approximately 10 fold), 20 μL of MTT solution (5 mg/mL in phosphate-buffered saline) was added to each well and the plates further incubated for 5 h. The plates were then centrifuged for 5 min at 300 g and the bulk of the medium pipetted from the cell pellet leaving 10-20 μL per well. […] The optical density was then read at a wavelength of 550 nm on a Titertek Multiscan ELISA plate reader, and a dose-response curve was constructed. […]

By IC50 is commonly meant the point on the concentration scale where inhibition reaches its midpoint. Turning to `COc1cc2c(cc1OCCCCCOc1cc3c(cc1OC)C(=O)N1C=C(C)C[C@H]1C=N3)N=C[C@@H]1CC(C)=CN1C2=O` [Compound RelC], the IC50 was determined as 0.425 nM.
